According to the supplement of paper PMC11061612:

Tests used:
[1] = test system: YT (Other Blood Carcinomas); experiment: Bliss excess, mean over the matrix (fraction); higher = more synergy
Outline: (§1)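 After 24 hours at 37°C and 5% CO2 in 1536-well plates, cells in DMEM/F12 or RPMI plus 10% FBS received two-drug dose matrices for 72 hours. Viability came from CellTiter-Glo 2.0 luminescence and was scaled as inhibition, anchored at 0 by vehicle wells and at 1 by blank wells. Combination Emax is taken as the second-highest inhibition in the matrix, and Bliss excess as the observed combination effect less EA + EB − EA·EB, with EA and EB the single-agent effects.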

[2] = test system: TYK-nu (Ovarian Carcinoma); experiment: as above
Outline: as §1

[3] = test system: P31-FUJ (Acute Myeloid Leukemia); experiment: as above
Outline: as §1

[4] = test system: SW948 (Colorectal Carcinoma); experiment: as above
Outline: as §1

[5] = test system: HCC-827 (Lung Adenocarcinoma); experiment: as above
Outline: as §1

D-392MG (Glioblastoma) = experiment: as above
Outline: as §1

EW-22 (Ewing's Sarcoma) [6] = experiment: as above
Outline: as §1

Saos-2 (Osteosarcoma) [7] = experiment: as above
Outline: as §1

[8] = test system: PA-TU-8902 (Pancreatic Carcinoma); experiment: as above
Outline: as §1

[9] = test system: BICR78 (Oral Cavity Carcinoma); experiment: as above
Outline: as §1

[10] = test system: SK-UT-1 (Other Solid Carcinomas); experiment: as above
Outline: as §1

[11] = test system: SK-LMS-1 (Other Solid Carcinomas); experiment: as above
Outline: as §1

[12] = test system: EFM-192A (Breast Carcinoma); experiment: as above
Outline: as §1

[13] = test system: RCC10RGB (Kidney Carcinoma); experiment: as above
Outline: as §1

[14] = test system: SW48 (Colorectal Carcinoma); experiment: combination Emax (second highest fraction inhibited in the dose matrix, 72 h); higher = more inhibition; extreme values may be limits of the assay
Outline: as §1

EW-22 (Ewing's Sarcoma) [15] = experiment: as above
Outline: as §1

Saos-2 (Osteosarcoma) [16] = experiment: as above
Outline: as §1

[17] = test system: HOP-92 (Non-Small Cell Lung Carcinoma); experiment: as above
Outline: as §1

[18] = test system: 647-V (Bladder Carcinoma); experiment: as above
Outline: as §1

CS1 (Chondrosarcoma) = experiment: as above
Outline: as §1
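Throughout, for Bliss excess, mean over the matrix: after 72 h of two-drug dosing.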

| Compound | Bliss excess [1] | Bliss excess [2] | Bliss excess [3] | Bliss excess [4] | Bliss excess [5] | Bliss excess (D-392MG (Glioblastoma)) | Bliss excess (EW-22 (Ewing's Sarcoma) [6]) | Bliss excess (Saos-2 (Osteosarcoma) [7]) | Bliss excess [8] | Bliss excess [9] | Bliss excess [10] | Bliss excess [11] | Bliss excess [12] | Bliss excess [13] | combination Emax [14] | combination Emax (EW-22 (Ewing's Sarcoma) [15]) | combination Emax (Saos-2 (Osteosarcoma) [16]) | combination Emax [17] | combination Emax [18] | combination Emax (CS1 (Chondrosarcoma)) |
| --- | --- | --- | --- | --- | --- | --- | --- | --- | --- | --- | --- | --- | --- | --- | --- | --- | --- | --- | --- | --- |
| Cc1c2c(nn1C)CSCc1cc(n(C)n1)CSc1cc(c3ccccc3c1)OCCCc1c(C(=O)O)n(C)c3c-2c(Cl)ccc13 [AZD5991] + Cn1cnc2c(F)c(Nc3ccc(Br)cc3Cl)c(C(=O)NOCCO)cc21 [Selumetinib] (first compound max 1 µM, 7x7, partner max 3 µM) | -0.0051 | -0.0052 | 0.0399 | -0.0388 | -0.0091 | 0.0339 | -0.019 | -0.007 | -0.0466 | -0.0106 | -0.0063 | -0.0257 | -0.0116 | 0.0528 | 0.565 | 0.566 | 0.247 | 0.456 | 0.91 | 0.224 |
| COc1cccc2c1C(=O)c1c(O)c3c(c(O)c1C2=O)C[C@@](O)(C(=O)CO)C[C@@H]3O[C@H]1C[C@H](N)[C@H](O)[C@H](C)O1 [Doxorubicin] + Cc1cc2ncnn2cc1Nc1ncc2c(n1)n(C1CCOCC1)c(=O)n2C [AZD7648] (first compound max 1 µM, 7x7, partner max 10 µM) | 0.0344 | 0.0591 | 0.108 | 0.0438 | 0.0178 | 0.0458 | 0.061 | 0.0415 | 0.0081 | 0.028 | 0.093 | 0.0633 | -0.0216 | -0.0449 | 0.94 | 0.947 | 0.862 | 0.547 | 0.958 | 0.772 |
| Cn1cnc2c(F)c(Nc3ccc(Br)cc3Cl)c(C(=O)NOCCO)cc21 [Selumetinib] + CCN(CCO)CCCOc1ccc2c(Nc3cc(CC(=O)Nc4cccc(F)c4)[nH]n3)ncnc2c1 [AZD2811] (first compound max 10 µM, 7x7, partner max 1 µM) | -0.0336 | -0.0169 | -0.0136 | 0.0022 | -0.0711 | -0.0304 | -0.0426 | 0.0334 | 0.0087 | 0.0275 | 0.0021 | -0.0047 | -0.0285 | -0.0658 | 0.989 | 0.695 | 0.472 | 0.495 | 0.394 | 0.266 |
| CC(=O)c1c(C)c2cnc(Nc3ccc(N4CCNCC4)cn3)nc2n(C2CCCC2)c1=O [Palbociclib] + Cc1c2c(nn1C)CSCc1cc(n(C)n1)CSc1cc(c3ccccc3c1)OCCCc1c(C(=O)O)n(C)c3c-2c(Cl)ccc13 [AZD5991] (first compound max 10 µM, 7x7, partner max 1 µM) | 0.0006 | -0.0289 | -0.11 | 0.0058 | -0.0324 | 0.0189 | 0.0039 | -0.0197 | -0.0469 | -0.0375 | 0.0096 | -0.0081 | -0.119 | -0.0083 | 0.409 | 0.515 | 0.332 | 0.293 | 0.117 | 0.304 |
| CC1(C)CCC(CN2CCN(c3ccc(C(=O)NS(=O)(=O)c4ccc(NCC5CCOCC5)c([N+](=O)[O-])c4)c(Oc4cnc5[nH]ccc5c4)c3)CC2)=C(c2ccc(Cl)cc2)C1 [Venetoclax] + C[C@@H](Nc1cc(F)cc(F)c1)c1cc(C(=O)N(C)C)cc2c(=O)cc(N3CCOCC3)oc12 [AZD8186] (first compound max 1 µM, 7x7, partner max 3 µM) | 0.0317 | -0.0103 | 0.0178 | -0.0518 | -0.0146 | -0.061 | 0.0333 | 0 | -0.0453 | -0.0423 | -0.0141 | -0.014 | -0.0501 | -0.0866 | 0.275 | 0.881 | 0.34 | 0.206 | 0.17 | 0.415 |
| CC1(C)CCC(CN2CCN(c3ccc(C(=O)NS(=O)(=O)c4ccc(NCC5CCOCC5)c([N+](=O)[O-])c4)c(Oc4cnc5[nH]ccc5c4)c3)CC2)=C(c2ccc(Cl)cc2)C1 [Venetoclax] + C=CCn1c(=O)c2cnc(Nc3ccc(N4CCN(C)CC4)cc3)nc2n1-c1cccc(C(C)(C)O)n1 [AZD1775] (first compound max 1 µM, partner max 1 µM) | -0.0039 | -0.107 | 0.0685 | -0.0113 | -0.0764 | 0.0593 | 0.139 | 0.0339 | -0.0622 | 0.0011 | 0.0562 | -0.0306 | -0.0253 | -0.0374 | 0.809 | 0.924 | 0.818 | 0.48 | 0.612 | 0.682 |
| Cn1cnc2c(F)c(Nc3ccc(Br)cc3Cl)c(C(=O)NOCCO)cc21 [Selumetinib] + C[C@@H]1COCCN1C2=NC(=NC(=C2)C3(CC3)[S@](=N)(=O)C)C4=C5C=CNC5=NC=C4 [AZD6738] (first compound max 10 µM, 7x7, partner max 10 µM) | -0.064 | 0.089 | -0.0802 | -0.0114 | -0.0172 | 0.0013 | -0.028 | -0.0349 | 0.0428 | -0.001 | -0.0511 | 0.0453 | -0.0365 | 0.119 | 0.723 | 0.855 | 0.456 | 0.398 | 0.757 | 0.472 |
| C[C@@H](c1ccc2nccn2c1)n1nnc2ncc(-c3cnn(C)c3)nc21 [Savolitinib] + Cc1c2c(nn1C)CSCc1cc(n(C)n1)CSc1cc(c3ccccc3c1)OCCCc1c(C(=O)O)n(C)c3c-2c(Cl)ccc13 [AZD5991] (first compound max 1 µM, 7x7, partner max 1 µM) | -0.0156 | -0.0393 | -0.049 | -0.0305 | -0.008 | -0.001 | -0.0595 | -0.0405 | -0.0699 | -0.0214 | 0.0093 | 0.0027 | -0.0499 | -0.0371 | 0.24 | 0.271 | 0.229 | 0.197 | 0.233 | 0.266 |
| Cc1c2c(nn1C)CSCc1cc(n(C)n1)CSc1cc(c3ccccc3c1)OCCCc1c(C(=O)O)n(C)c3c-2c(Cl)ccc13 [AZD5991] + CN(C)CCCOc1ccc(-c2ccc3ncc4c(c3c2)n(C2CCOCC2)c(=O)n4C)cn1 [AZD0156] (first compound max 1 µM, 7x7, partner max 1 µM) | -0.0197 | -0.034 | 0.0014 | -0.0205 | 0.011 | -0.0225 | -0.0015 | -0.0158 | 0.0116 | 0.0199 | -0.0195 | -0.0645 | -0.0427 | -0.0619 | 0.216 | 0.512 | 0.239 | 0.41 | 0.878 | 0.235 |
| NC1(C(=O)N[C@@H](CCO)c2ccc(Cl)cc2)CCN(c2ncnc3[nH]ccc23)CC1 [Capivasertib] + CCN(CCO)CCCOc1ccc2c(Nc3cc(CC(=O)Nc4cccc(F)c4)[nH]n3)ncnc2c1 [AZD2811] (first compound max 10 µM, 7x7, partner max 1 µM) | 0.002 | -0.0351 | -0.0663 | -0.0161 | -0.0428 | -0.0265 | -0.0366 | -0.0757 | -0.0381 | -0.0092 | 0.0666 | -0.0055 | -0.0053 | -0.0838 | 0.983 | 0.78 | 0.586 | 0.458 | 0.309 | 0.417 |
| COc1nnc2ccc(N3CCC(c4ccc(OCCN5CCN(C)C(=O)[C@H]5C)cc4)CC3)nn12 [AZD5153] + CCN(CCO)CCCOc1ccc2c(Nc3cc(CC(=O)Nc4cccc(F)c4)[nH]n3)ncnc2c1 [AZD2811] (first compound max 1 µM, 7x7, partner max 1 µM) | -0.0579 | -0.0658 | -0.0293 | -0.102 | -0.0513 | -0.037 | -0.0779 | -0.0809 | -0.0246 | -0.0537 | -0.0144 | 0.0012 | -0.0154 | -0.133 | 0.912 | 0.787 | 0.601 | 0.402 | 0.545 | 0.46 |
| CC(=O)Nc1cccc(-n2c(=O)n(C3CC3)c(=O)c3c(Nc4ccc(I)cc4F)n(C)c(=O)c(C)c32)c1 [Trametinib] + Cc1nc(-c2cn3c(n2)-c2ccc(-c4cnn(C(C)(C)C(N)=O)c4)cc2OCC3)n(C(C)C)n1 [Taselisib] (first compound max 1 µM, 7x7, partner max 10 µM) | -0.0043 | 0.138 | 0.182 | 0.0126 | 0.0731 | 0.137 | -0.0042 | 0.0402 | 0.108 | 0.0654 | 0.0411 | 0.0854 | 0.0042 | -0.0186 | 0.95 | 0.722 | 0.681 | 0.988 | 0.456 | 0.878 |
